From a melting point compilation (Tetko et al.; mined from patent text by program, amines drawn as free bases though some values may be those of a salt)

| Structure (SMILES) | melting point |
| --- | --- |
| O=C1CN=C(c2ccccc2F)c2cc(Cl)ccc2N1 | 206 to 207 °C |
| ON=C(Cl)c1ccccc1 | 50 to 51 °C |
| CCCCCCCCCCCCCCCCOCC(CN)COC (stereo unspecified) | 49 to 51 °C |
| C=C(Cl)Cc1c(Cl)nc(NC=O)nc1Cl | 113 to 115 °C |
| O=C(NCCCc1ccncc1)N(CCC12CC3CC(CC(C3)C1)C2)CC1CCCC1 | 155 to 158 °C |
| NS(=O)(=O)c1ccc2c(c1)CNC(C1CCCCC1)N2 (stereo unspecified) | 178 to 180 °C |
| CS(=O)(=O)c1ccc(-n2cncc2-c2ccccc2)cc1 | 164 °C |
| CC(CCCCCOCCc1ccccc1)NCC(O)c1ccc2c(n1)COC(c1ccccc1)O2 (stereo unspecified) | 61 to 67 °C |
| CC12CCC3c4cc(OCC(F)(F)F)c(O)cc4CCC3C1CCC2O (stereo unspecified) | 167 to 168 °C |
| COc1cc(C)c(OC)c(C=C(C)[N+](=O)[O-])c1C | 48 to 49 °C |
| CCCCCCCCCCCCCCCCCC1CC(OC(=O)c2ccccc2)C(CC)C(=O)O1 (racemic) | 64.5 to 66 °C |
| CON1CCC2(CC1)C(O)=C(c1c(C)cc(C)cc1C)C(=O)N2O | 152 to 154 °C |
| OCC1OC(n2cnc3c(NCCc4csc5ccccc45)ncnc32)C(O)C1O (stereo unspecified) | 173 to 174 °C |
| COC(=O)c1ccc(C2=NOC(c3cc(Cl)cc(Cl)c3)(C(F)(F)F)C2)cc1 (stereo unspecified) | 94 to 96 °C |
| O=S1(=O)NCN(C2CC2)c2cc(Br)cc(F)c21 | 195 to 198 °C |
| COc1ccc(-n2nnc3ccc(-c4nnc(CCc5cccc(F)c5)o4)cc32)cc1 | 125 to 126 °C |
| COc1ccc(-c2nc(C3=CCN(C)CC3)sc2-c2ccc(OC)cc2)cc1 | 131 to 132 °C |
| OCc1nc2cc(Br)cnc2[nH]1 | 230 to 233 °C |
| CN1CCC23c4c5ccc(OCCCCN)c4CC1C2C=CC(O)C3O5 (stereo unspecified) | 140 to 142 °C |
| ClCCOc1ccc(CBr)cc1 | 64 to 66 °C |
| Cc1oc(C2(C)CCCCC2)nc1CC#N | 57 to 58 °C |
| COC1=NS(=O)N=C1NCCCCC#CCN1CCCCC1 (stereo unspecified) | 134 to 136 °C |
| CCOc1ccc(C=NO)cc1 | 81 to 86 °C |
| CC(C)(C)C(O)(Cc1ccccc1)C(Cn1ccnc1)Oc1ccc(Cl)cc1 (stereo unspecified) | 179 to 181 °C |
| O=[N+]([O-])c1cc(CSC2OC(CO)C(OC3OC4COC(c5ccccc5)OC4C(O)C3O)C(O)C2O)ccc1Cl (stereo unspecified) | 120 to 122 °C |
| Cc1cc(-n2ccnc2)c2cccc(OCc3c(Cl)ccc(S(=O)(=O)N4CCC[C@H]4C(=O)NCC4CCN(Cc5ccccn5)CC4)c3Cl)c2n1 | 100 °C |
| CN(C)c1ccc(C2(c3ccc(N(C)C)cc3N(C)C)OC(=O)c3c(Cl)c(Cl)c(Cl)c(Cl)c32)cc1 (stereo unspecified) | 227 to 229 °C |
| CCN(CC)Cc1nc(-c2ncn3c2[C@@H]2CCN2C(=O)c2ccccc2-3)no1 | 209 to 211 °C |

The next lines start with the values.

| melting point | Structure (SMILES) |
| --- | --- |
| 196 °C | O=C(O)c1coc2c(Cl)cc(Cl)cc2c1=O |
| 118 to 120 °C | CON=C(C)c1ccc(NS(C)(=O)=O)c(Oc2ccc(F)cc2F)c1 |
| 136 to 138 °C | COC(=O)C(=O)c1ccc(OCCOc2ccc3ccccc3c2)c(F)c1 |
| 111 to 113 °C | COc1ccc2c(c1)NC(=O)C(CCO)O2 (stereo unspecified) |
| 186 to 188 °C | Cc1cc(F)ccc1C(O)(Cc1nnnn1C)c1ccc(F)cc1C |
| 185 °C | Cc1nc2ccc(N)cn2c(=O)c1CCCl |
| 137 to 140 °C | COc1ccc(C(CCCCl)=NNC(N)=S)cc1 |
| 145 to 147 °C | N#Cc1c(OCC(F)(F)F)nc(N)nc1N1CCc2ccccc2CC1 |
| 260 to 261 °C | CNc1nc(C)c(C(=O)c2ccc(N)c([N+](=O)[O-])c2)s1 |
| 232 °C | Cc1cccc(-c2sc(N)nc2-c2ccnc(-c3ccc(OC(F)(F)F)cc3)c2)n1 |
| 76 °C | CC(=O)Oc1cc(Br)cc2c1OC(C)(C)C2 |
| 250 °C | CCc1nnc(-c2ccc(NC=O)cc2)n1-c1ccccc1OC |
| 78 to 79 °C | C[C@@H](NC(=O)c1sc(-c2ccc(Cl)cc2)nc1C(F)(F)F)[C@](O)(Cn1cncn1)c1ccc(F)cc1F |
